The supplement of paper PMC11061612

Tests used:
Experiment in all cases: combination Emax (second highest fraction inhibited in the dose matrix, 72 h); higher = more inhibition; extreme values may be limits of the assay
[1] = system: HSC-4 (Oral Cavity Carcinoma)
How it was run: (§1)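 After 24 hours at 37°C and 5% CO2 in 1536-well plates, cells in DMEM/F12 or RPMI plus 10% FBS received two-drug dose matrices for 72 hours. Viability came from CellTiter-Glo 2.0 luminescence and was scaled as inhibition, anchored at 0 by vehicle wells and at 1 by blank wells. Combination Emax is taken as the second-highest inhibition in the matrix, and Bliss excess as the observed combination effect less EA + EB − EA·EB, with EA and EB the single-agent effects.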

[2] = system: OVCAR-4 (Ovarian Carcinoma)
How it was run: as §1

[3] = system: HGC-27 (Gastric Carcinoma)
How it was run: as §1

[4] = system: NEC8 (Other Solid Carcinomas)
How it was run: as §1

[5] = system: D-263MG (Glioblastoma)
How it was run: as §1

[6] = system: SCC-15 (Oral Cavity Carcinoma)
How it was run: as §1

[7] = system: YH-13 (Glioblastoma)
How it was run: as §1

[8] = system: LU-65 (Non-Small Cell Lung Carcinoma)
How it was run: as §1

[9] = system: HOP-62 (Lung Adenocarcinoma)
How it was run: as §1

[10] = system: BT-549 (Breast Carcinoma)
How it was run: as §1

[11] = system: KARPAS-299 (T-Cell Non-Hodgkin's Lymphoma)
How it was run: as §1

[12] = system: AMO-1 (Plasma Cell Myeloma)
How it was run: as §1

[13] = system: NCI-H1915 (Non-Small Cell Lung Carcinoma)
How it was run: as §1

[14] = system: Hs-766T (Pancreatic Carcinoma)
How it was run: as §1

[15] = system: TGW (Neuroblastoma)
How it was run: as §1

[16] = system: SU8686 (Pancreatic Carcinoma)
How it was run: as §1

[17] = system: TE-1 (Esophageal Squamous Cell Carcinoma)
How it was run: as §1

[18] = system: Ca9-22 (Head and Neck Carcinoma)
How it was run: as §1

[19] = system: MLMA (Other Blood Carcinomas)
How it was run: as §1

[20] = system: PANC-04-03 (Pancreatic Carcinoma)
How it was run: as §1

SMILES	combination Emax [1]	combination Emax [2]	combination Emax [3]	combination Emax [4]	combination Emax [5]	combination Emax [6]	combination Emax [7]	combination Emax [8]	combination Emax [9]	combination Emax [10]	combination Emax [11]	combination Emax [12]	combination Emax [13]	combination Emax [14]	combination Emax [15]	combination Emax [16]	combination Emax [17]	combination Emax [18]	combination Emax [19]	combination Emax [20]
CC(=O)Nc1cccc(-n2c(=O)n(C3CC3)c(=O)c3c(Nc4ccc(I)cc4F)n(C)c(=O)c(C)c32)c1 [Trametinib] + Cc1nc(-c2cn3c(n2)-c2ccc(-c4cnn(C(C)(C)C(N)=O)c4)cc2OCC3)n(C(C)C)n1 [Taselisib] (first compound max 1 µM, 7x7, partner max 10 µM)	0.686	0.518	0.924	0.674	0.943	1	0.916	0.985	0.778	0.497	0.639	0.812	1	0.773	0.694	0.481	0.75	0.936	0.661	0.89
CC1(C)CCC(CN2CCN(c3ccc(C(=O)NS(=O)(=O)c4ccc(NCC5CCOCC5)c([N+](=O)[O-])c4)c(Oc4cnc5[nH]ccc5c4)c3)CC2)=C(c2ccc(Cl)cc2)C1 [Venetoclax] + C1CN(CCC1(C(=O)N[C@@H](CCO)C2=CC=C(C=C2)Cl)N)C3=NC=NC4=C3C=CN4 [Capivasertib] (first compound max 1 µM, 7x7, partner max 3 µM)	0.306	0.1	0.814	0.174	0.202	0.226	0.259	0.462	0.14	0.239	0.837	0.76	0.141	0.225	0.465	0.059	0.162	0.212	0.866	0.199
CC1(C)CCC(CN2CCN(c3ccc(C(=O)NS(=O)(=O)c4ccc(NCC5CCOCC5)c([N+](=O)[O-])c4)c(Oc4cnc5[nH]ccc5c4)c3)CC2)=C(c2ccc(Cl)cc2)C1 [Venetoclax] + C=CCn1c(=O)c2cnc(Nc3ccc(N4CCN(C)CC4)cc3)nc2n1-c1cccc(C(C)(C)O)n1 [AZD1775] (first compound max 1 µM, partner max 1 µM)	0.372	0.588	0.54	0.42	0.808	0.327	0.381	0.733	0.446	0.778	0.951	0.921	0.634	0.53	0.846	0.107	0.603	0.903	0.945	0.466
CC1(C)CCC(CN2CCN(c3ccc(C(=O)NS(=O)(=O)c4ccc(NCC5CCOCC5)c([N+](=O)[O-])c4)c(Oc4cnc5[nH]ccc5c4)c3)CC2)=C(c2ccc(Cl)cc2)C1 [Venetoclax] + CCN(CCO)CCCOc1ccc2c(Nc3cc(CC(=O)Nc4cccc(F)c4)[nH]n3)ncnc2c1 [AZD2811] (first compound max 1 µM, 7x7, partner max 1 µM)	0.203	0.333	0.809	0.205	0.323	0.295	0.576	0.249	0.342	0.336	0.818	0.816	0.224	0.291	0.568	0.158	0.298	0.236	0.841	0.196
CC1(C)CCC(CN2CCN(c3ccc(C(=O)NS(=O)(=O)c4ccc(NCC5CCOCC5)c([N+](=O)[O-])c4)c(Oc4cnc5[nH]ccc5c4)c3)CC2)=C(c2ccc(Cl)cc2)C1 [Venetoclax] + CN(C)CCCOc1ccc(-c2ccc3ncc4c(c3c2)n(C2CCOCC2)c(=O)n4C)cn1 [AZD0156] (first compound max 1 µM, 7x7, partner max 1 µM)	0.14	0.173	0.362	0.174	0.171	0.245	0.198	0.362	0.242	0.179	0.807	0.814	0.285	0.41	0.32	0.152	0.098	0.48	0.93	0.18
CC1(C)CCC(CN2CCN(c3ccc(C(=O)NS(=O)(=O)c4ccc(NCC5CCOCC5)c([N+](=O)[O-])c4)c(Oc4cnc5[nH]ccc5c4)c3)CC2)=C(c2ccc(Cl)cc2)C1 [Venetoclax] + COc1cc(Nc2ncc3c(n2)-c2ccc(Cl)cc2C(c2c(F)cccc2OC)=NC3)ccc1C(=O)O [Alisertib] (first compound max 1 µM, 7x7, partner max 10 µM)	0.28	0.344	0.919	0.183	0.518	0.378	0.549	0.314	0.456	0.529	0.762	0.868	0.455	0.393	0.972	0.117	0.635	0.706	0.866	0.263
CC1(C)CCC(CN2CCN(c3ccc(C(=O)NS(=O)(=O)c4ccc(NCC5CCOCC5)c([N+](=O)[O-])c4)c(Oc4cnc5[nH]ccc5c4)c3)CC2)=C(c2ccc(Cl)cc2)C1 [Venetoclax] + C[C@@H]1COCCN1C2=NC(=NC(=C2)C3(CC3)[S@](=N)(=O)C)C4=C5C=CNC5=NC=C4 [AZD6738] (first compound max 1 µM, 7x7, partner max 10 µM)	0.601	0.684	0.8	0.749	0.515	0.442	0.5	0.652	0.624	0.52	0.954	0.904	0.538	0.565	0.715	0.0868	0.543	0.865	0.909	0.443
CC1(C)CCC(CN2CCN(c3ccc(C(=O)NS(=O)(=O)c4ccc(NCC5CCOCC5)c([N+](=O)[O-])c4)c(Oc4cnc5[nH]ccc5c4)c3)CC2)=C(c2ccc(Cl)cc2)C1 [Venetoclax] + C[C@@H](Nc1cc(F)cc(F)c1)c1cc(C(=O)N(C)C)cc2c(=O)cc(N3CCOCC3)oc12 [AZD8186] (first compound max 1 µM, 7x7, partner max 3 µM)	0.177	0.138	0.54	0.0292	0.142	0.166	0.441	0.199	0.264	0.258	0.829	0.842	0.118	0.349	0.377	0.127	0.217	0.471	0.89	0.149
CC1(C)CCC(CN2CCN(c3ccc(C(=O)NS(=O)(=O)c4ccc(NCC5CCOCC5)c([N+](=O)[O-])c4)c(Oc4cnc5[nH]ccc5c4)c3)CC2)=C(c2ccc(Cl)cc2)C1 [Venetoclax] + Cc1cc2ncnn2cc1Nc1ncc2c(n1)n(C1CCOCC1)c(=O)n2C [AZD7648] (first compound max 1 µM, 7x7, partner max 10 µM)	0.11	0.19	0.485	0.205	0.179	0.212	0.3	0.378	0.172	0.258	0.837	0.73	0.641	0.372	0.393	0.152	0.0373	0.128	0.86	0.286
CC1(C)CCC(CN2CCN(c3ccc(C(=O)NS(=O)(=O)c4ccc(NCC5CCOCC5)c([N+](=O)[O-])c4)c(Oc4cnc5[nH]ccc5c4)c3)CC2)=C(c2ccc(Cl)cc2)C1 [Venetoclax] + Cn1cnc2c(F)c(Nc3ccc(Br)cc3Cl)c(C(=O)NOCCO)cc21 [Selumetinib] (first compound max 1 µM, 7x7, partner max 3 µM)	0.243	0.209	0.142	0.104	0.119	0.264	0.181	0.538	0.435	0.106	0.812	0.806	0.423	0.502	0.337	0.135	0.245	0.222	0.93	0.354
